Experimental data from ChEMBL document CHEMBL3259636, “Phenyl carboxamide analogues as spleen tyrosine kinase (syk) inhibitors” (ACS Med Chem Lett, 2014).

Biological target: Tyrosine-protein kinase SYK (Homo sapiens, UniProt P43405)
Assay: Inhibition of human recombinant SYK by HTRF assay

SMILES: NC(=O)c1ccc(N[C@@H]2CCCC[C@@H]2N)cc1Nc1cccc(-c2ccccc2)n1
- IC50: < 1.5 nM

SMILES: NC(=O)c1ccc(N[C@@H]2CCCC[C@@H]2N)cc1Nc1cccc(-c2cccc(F)c2)n1
- IC50: < 1.5 nM

SMILES: COc1ccc(-c2cccc(Nc3cc(N[C@@H]4CCCC[C@@H]4N)ccc3C(N)=O)n2)cc1
- IC50: < 1.5 nM

SMILES: NC(=O)c1ccc(N[C@@H]2CCCC[C@@H]2N)cc1Nc1cccc(-c2ccc(F)c(F)c2)n1
- IC50: < 1.5 nM

SMILES: Cc1cccc(Nc2cc(N[C@@H]3CCCC[C@@H]3N)ccc2C(N)=O)n1
- IC50: > 1.5 nM
